Results as given in publication PMC9817970 (Cancers, 2022).
Where “and” joins values, the source holds several entries; their conditions need not be identical. Identical values can stand only once.

Experiments:
[1] = test system: HMC1.2 cells; experiment: Cell cycle arrest analysis (PI flow cytometry); assay type: cell-based, human; conditions: HMC1.2, 0.5 μM, 24 h
Experimental: (§1) After compound treatment in GIST-T1 and HMC1.2 cells for 24 h, cells were fixed with 70% cold ethanol. Then, cells were incubated with 50 μg propidium iodide/mL solution (PI, Sigma) containing 1 mg RNase A/mL for 30 min in the dark. Cell cycle arrest was analyzed (BD Accuri), and data were processed using BD Accuri^TM C6 software. For apoptosis analysis, compound treatment for 24–48 h, cells were harvested and stained with annexinV and PI solution. 1 × 10^5 cells were analyzed using flow cytometric analysis.

[2] = test system: GIST-T1 cells; experiment: Cell cycle arrest analysis (PI flow cytometry); assay type: cell-based, human; conditions: GIST-T1, 0.01 μM
Experimental: as §1

[3] = test system: c-KIT D816V Ba/F3 cells; experiment: Apoptosis analysis (annexinV/PI flow cytometry); assay type: cell-based; conditions: c-KIT D816V Ba/F3, 1 μM
Experimental: as §1

[4] = molecular target: T1, c-KIT V560G/D816V (Homo sapiens, UniProt P10721, D816V/V560G); experiment: ADP-Glo kinase assay on c-KIT V560G/D816V; assay type: biochemical
T1 construct: purchased Promega VA7063
Experimental: (§2) Biochemical kinase assays on c-KIT protein kinase were performed at Reaction Biology Corp. (San Diego, CA, USA). […] The kinase assay followed the manufacturer’s instruction. IC50 values were calculated by GraphPad prism 8.0 software (GraphPad Software, San Diego, CA, USA).

[5] = test system: GIST-T1 cells; experiment: Soft agar assay (anchorage-independent growth); assay type: cell-based, human; conditions: 3 weeks
Experimental: Anchorage-independent growth was assessed by determining colony formation on soft agar. GIST-T1 cells in DMEM media containing 0.7% agar were plated at 5,000 cells per well. Cells were treated with each compound for 3 weeks, and the media were changed every 3 days. Colonies were stained using iodonitrotetrazolium chloride (Sigma Aldrich). The average number colonies were counted using ImageJ software (version 1.53e, National Institutes of Health, Bethesda, MD, USA)

[6] = molecular target: T2, c-KIT (Homo sapiens, UniProt P10721); experiment: Kinase panel profiling; assay type: biochemical; set-up: purchased Reaction Biology Corp; conditions: 10 μM ATP
Experimental: (§3) Kinase panel profiling was conducted by Reaction Biology Corp. (San Diego, CA, USA). A single dose (1.0 μM) of 6r was tested against 371 recombinant human kinases in the presence of 10 μM ATP.

[7] = molecular target: T2, c-KIT; experiment: Radiometric biochemical kinase assay on c-KIT; set-up: purchased Reaction Biology Corp. (contract assay service)
Experimental: as §2
Enzymatic inhibitory activities of all synthesized thiazolo[5,4-b]pyridine derivatives against c-KIT were measured using radiometric biochemical kinase assays (Table 1). We first explored the R1 group of the thiazolo[5,4-b]pyridine scaffold.

[8] = test system: HMC1.2 cells; experiment: Cell viability assay (CellTiter-Glo); assay type: cell-based, human; conditions: Homo sapiens, 72 h
Experimental: (§4) GIST-T1 (Cosmobio, Tokyo, Japan, # PMC-GIST01C-COS) cells were cultured in DMEM (Welgene, # LM001-05) and HMC1.2 (Merck, Darmstadt, Germany, # SCC062) cells were cultured in IMDM (Welgene, # LM004-01). Parental Ba/F3 (DSMZ, Braunschweig, Germany, # ACC300) cells were cultured in RPMI (Welgene, # LM011-51) with 10 ng IL-3/mL (Enzo, # ALX-201-821). The culture media was supplemented with 10% fetal bovine serum and 1% penicillin/streptomycin solution. The cells were maintained in a humidified atmosphere containing 5% CO2 at 37 °C.
(§5) Cells (GIST-T1: 5.0 × 10^3; HMC1.2: 1 × 10^4) were seeded in 96-well plates. Each compound was treated in each well at 10 dose points of 3-fold serial dilution. After treatment with each compound for 72 h, CellTiter-Glo solution (Promega, # G7572) was added to each well. Anti-proliferation activity was measured the luminescence using a 96-well plate reader (EnVision 2013).

[9] = test system: GIST-T1 cells; experiment: Migration (wound healing) assay; assay type: cell-based, human; conditions: GIST-T1, 0.005 μM and 0.05 μM, 36 h
Experimental: GIST-T1 cells were seeded in 6-well plates at 2 × 10^6 cells. Next day, cells were washed with PBS and wounded in the center of each well. Then, GIST-T1 cells were washed with PBS and added to fresh DMEM.

[10] = molecular target: T3, MYLK3 (Homo sapiens, UniProt Q32MK0); experiment: Kinase panel profiling; assay type: biochemical; conditions: 10 μM ATP
T3 construct: purchased Reaction Biology Corp
Experimental: as §3

[11] = molecular target: T4, TRKA (Homo sapiens, UniProt P04629); experiment: Kinase panel profiling; assay type: biochemical; conditions: 10 μM ATP
T4 construct: purchased Reaction Biology Corp
Experimental: as §3

[12] = molecular target: T5, ERN1/IRE1 (Homo sapiens, UniProt O75460); experiment: Kinase panel profiling; assay type: biochemical; conditions: 10 μM ATP
T5 construct: purchased Reaction Biology Corp
Experimental: as §3

[13] = molecular target: T6, STK38L/NDR2 (Homo sapiens, UniProt Q9Y2H1); experiment: Kinase panel profiling; assay type: biochemical; conditions: 10 μM ATP
T6 construct: purchased Reaction Biology Corp
Experimental: as §3

[14] = molecular target: T7, SSTK/TSSK6 (Homo sapiens, UniProt Q9BXA6); experiment: Kinase panel profiling; assay type: biochemical; conditions: 10 μM ATP
T7 construct: purchased Reaction Biology Corp
Experimental: as §3

[15] = molecular target: T8, TESK2 (Homo sapiens, UniProt Q96S53); experiment: Kinase panel profiling; assay type: biochemical; conditions: 10 μM ATP
T8 construct: purchased Reaction Biology Corp
Experimental: as §3

[16] = molecular target: T9, RSK4 (Homo sapiens, UniProt Q9UK32); experiment: Kinase panel profiling; assay type: biochemical; conditions: 10 μM ATP
T9 construct: purchased Reaction Biology Corp
Experimental: as §3

[17] = molecular target: T10, CAMKK2 (Homo sapiens, UniProt Q96RR4); experiment: Kinase panel profiling; assay type: biochemical; conditions: 10 μM ATP
T10 construct: purchased Reaction Biology Corp
Experimental: as §3

[18] = molecular target: T11, TNIK (Homo sapiens, UniProt Q9UKE5); experiment: Kinase panel profiling; assay type: biochemical; conditions: 10 μM ATP
T11 construct: purchased Reaction Biology Corp
Experimental: as §3

[19] = test system: parental Ba/F3 cells; experiment: Anti-proliferative activity on Ba/F3 cells; assay type: cell-based; conditions: Mus musculus, BaF3
Experimental: as §4, §5

Cc1ccc(NC(=O)c2ccc(CN3CCN(C)CC3)c(C(F)(F)F)c2)cc1-c1cnc2sc(N)nc2c1 [6r]
G0/G1 arrest compared with imatinib [1]: more strongly
G0/G1 arrest induced compared to control [2]: 25–35%
production of apoptotic cells [3]: remarkably induced
IC50 ([4]; ADP-Glo kinase assay, 10 μM ATP): 4.77 ± 0.38 µM
fold higher enzymatic inhibitory activity against c-KIT V560G/D816V compared with imatinib ([4]; versus imatinib): 4.9- to 8.0 fold and 8.0 fold
anchorage-independent growth ([5]; GIST-T1, 0.05 μM, compared to control): completely suppressed
anchorage-independent growth ([5]; GIST-T1, two different concentrations): dramatic inhibition
inhibition at 1 µM [6]: 98.7%
IC50 ([7]; read-out: IC50 against c-KIT): 0.14 µM
fold enhanced c-KIT inhibitory activity compared to 6m ([7]; versus 6m): 15.5 fold
fold higher c-KIT inhibitory activity than imatinib ([7]; versus imatinib): 1.9 fold
GI50 [8]: 1.15 ± 0.96 µM
cell migration decreased compared to control [9]: 50–70%
inhibition at 1 µM [10]: 0%
inhibition at 1 µM [11]: 9.7%
inhibition at 1 µM [12]: 8%
inhibition at 1 µM [13]: 6.5%
inhibition at 1 µM [14]: 0%
inhibition at 1 µM [15]: 15.1%
inhibition at 1 µM [16]: 1.8%
inhibition at 1 µM [17]: 20.5%
inhibition at 1 µM [18]: 22.4%
GI50 [19]: 8.06 ± 0.57 µM
